Measured values as given in PubChem BioAssay AID256 (DTP/NCI, 2004).
Where “and” joins values, the source holds several entries; their conditions need not be identical. Equal values may be shown once. Toxic doses and inconclusive results are not listed. The calls were made as follows: active = survival T/C of 150% or more; inactive = T/C below 125% in these data.

Test system: CD2F1 mice, L1210 leukemia ip, survival T/C
Test: NCI In Vivo Anticancer Drug Screen. Data for tumor model L1210 Leukemia (intraperitoneal) in CD2F1 (CDF1) mice
Conditions: higher = longer survival
Summary of the method: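 Activity against a transplanted murine tumor was judged by comparing the compound group with a vehicle group. The outcome in the treated animals was divided by that in the controls.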

[1] = endpoint: mean survival time, dose: 100.0 mg/kg/injection, schedule: Q01DX009 (ip), vehicle: saline with Tween-80
[2] = endpoint: mean survival time, dose: 200.0 mg/kg/injection, schedule: Q01DX009 (ip), vehicle: saline with Tween-80
[3] = endpoint: mean survival time, dose: 400.0 mg/kg/injection, schedule: Q01DX009 (ip), vehicle: saline with Tween-80
[4] = endpoint: mean survival time, dose: 100.0 mg/kg/injection, schedule: Q04DX002 (ip), vehicle: saline with Tween-80
[5] = endpoint: mean survival time, dose: 200.0 mg/kg/injection, schedule: Q04DX002 (ip), vehicle: saline with Tween-80
[6] = endpoint: mean survival time, dose: 400.0 mg/kg/injection, schedule: Q04DX002 (ip), vehicle: saline with Tween-80
[7] = endpoint: mean survival time, dose: 100.0 mg/kg/injection, schedule: Q01DX001 (ip), vehicle: saline
[8] = endpoint: mean survival time, dose: 200.0 mg/kg/injection, schedule: Q01DX001 (ip), vehicle: saline
[9] = endpoint: mean survival time, dose: 400.0 mg/kg/injection, schedule: Q01DX001 (ip), vehicle: saline
[10] = endpoint: mean survival time, dose: 100.0 mg/kg/injection, schedule: Q04DX003 (ip), vehicle: saline with Tween-80
[11] = endpoint: mean survival time, dose: 200.0 mg/kg/injection, schedule: Q04DX003 (ip), vehicle: saline with Tween-80
[12] = endpoint: mean survival time, dose: 400.0 mg/kg/injection, schedule: Q04DX003 (ip), vehicle: saline with Tween-80
[13] = endpoint: mean survival time, dose: 50.0 mg/kg/injection, schedule: Q01DX009 (ip), vehicle: saline with Tween-80

Measured: T/C

O=P([O-])([O-])O.O=P([O-])([O-])O.O=P([O-])([O-])O.O=P([O-])([O-])O.[Na+].[OH3+].[OH3+].[Pt+2].[Pt+2]
inactive: endpoint: median survival time, dose: 10.0 mg/kg/injection, schedule: Q04DX003 (ip), vehicle: water 102 % of control | endpoint: median survival time, dose: 20.0 mg/kg/injection, schedule: Q04DX003 (ip), vehicle: water 91 % of control | endpoint: median survival time, dose: 30.75 mg/kg/injection, schedule: Q04DX003 (ip), vehicle: water 103 % of control | endpoint: median survival time, dose: 40.0 mg/kg/injection, schedule: Q04DX003 (ip), vehicle: water 98 % of control | endpoint: median survival time, dose: 61.5 mg/kg/injection, schedule: Q04DX003 (ip), vehicle: water 102 % of control | endpoint: median survival time, dose: 80.0 mg/kg/injection, schedule: Q04DX003 (ip), vehicle: water 94 % of control | endpoint: median survival time, dose: 123.0 mg/kg/injection, schedule: Q04DX003 (ip), vehicle: water 104 % of control | endpoint: median survival time, dose: 246.0 mg/kg/injection, schedule: Q04DX003 (ip), vehicle: water 110 % of control

CN(Cc1ccccc1)N=Nc1ccc(C#N)cc1
inactive: [1] 104 % of control | [2] 112 % of control | [3] 112 % of control

O=C1C2C=CC=CC1C1C=CC=CC21 (stereo not given)
inactive: endpoint: median survival time, dose: 50.0 mg/kg/injection, schedule: Q04DX002 (ip), vehicle: saline with Tween-80 112 % of control | endpoint: median survival time, dose: 100.0 mg/kg/injection, schedule: Q04DX002 (ip), vehicle: saline with Tween-80 100 % of control | endpoint: median survival time, dose: 200.0 mg/kg/injection, schedule: Q04DX002 (ip), vehicle: saline with Tween-80 100 % of control | endpoint: median survival time, dose: 400.0 mg/kg/injection, schedule: Q04DX002 (ip), vehicle: saline with Tween-80 100 % of control

CC(C)(C)C(=O)CC1(O)C(=O)Nc2cccc(C(F)(F)F)c21 (stereo not given)
inactive: [4] 102 % of control | [5] 109 % of control | [6] 102 % of control

COc1cccc(/C=N/NC(=O)c2ccccc2N2CCCC2)c1O
inactive: endpoint: mean survival time, dose: 12.5 mg/kg/injection, schedule: Q01DX009 (ip), vehicle: olive oil, sesame oil, peanut oil 104 % of control | endpoint: mean survival time, dose: 25.0 mg/kg/injection, schedule: Q01DX009 (ip), vehicle: olive oil, sesame oil, peanut oil 96 % of control | endpoint: mean survival time, dose: 50.0 mg/kg/injection, schedule: Q01DX009 (ip), vehicle: olive oil, sesame oil, peanut oil 102 % of control | endpoint: mean survival time, dose: 100.0 mg/kg/injection, schedule: Q01DX009 (ip), vehicle: olive oil, sesame oil, peanut oil 94 % of control | endpoint: mean survival time, dose: 200.0 mg/kg/injection, schedule: Q01DX009 (ip), vehicle: olive oil, sesame oil, peanut oil 96 % of control

Nc1cc(NC(c2ccccc2)c2ccccc2)c2[nH]cnc2n1
inactive: endpoint: mean survival time, dose: 100.0 mg/kg/injection, schedule: Q01DX001 (ip), vehicle: other 91 % of control | endpoint: mean survival time, dose: 200.0 mg/kg/injection, schedule: Q01DX001 (ip), vehicle: other 95 % of control

CNC(=S)Nc1ccc(OC)c2ccccc12
inactive: endpoint: mean survival time, dose: 100.0 mg/kg/injection, schedule: Q04DX003 (ip), vehicle: Klucel (hydroxypropylcellulose) (HPC) 86 % of control | endpoint: mean survival time, dose: 200.0 mg/kg/injection, schedule: Q04DX003 (ip), vehicle: Klucel (hydroxypropylcellulose) (HPC) 88 % of control | endpoint: mean survival time, dose: 400.0 mg/kg/injection, schedule: Q04DX003 (ip), vehicle: Klucel (hydroxypropylcellulose) (HPC) 89 % of control

Cc1nc2n[nH]c(N)c2nc1C
inactive: endpoint: mean survival time, dose: 100.0 mg/kg/injection, schedule: Q01DX009 (ip), vehicle: saline 100 % of control | endpoint: mean survival time, dose: 200.0 mg/kg/injection, schedule: Q01DX009 (ip), vehicle: saline 106 % of control | endpoint: mean survival time, dose: 400.0 mg/kg/injection, schedule: Q01DX009 (ip), vehicle: saline 106 % of control

CC(N)C(=O)O (stereo not given)
inactive: [7] 106 % of control | [8] 112 % of control | [9] 98 % of control

COC1=C2C[C@@H](C)C[C@@H](OC)[C@@H](O)[C@H](C)/C=C(\C)[C@@H](OC(N)=O)[C@H](OC)/C=C\C=C(/C)C(=O)NC(=CC1=O)C2=O
inactive: endpoint: mean survival time, dose: 0.12 mg/kg/injection, schedule: Q01DX009 (ip), vehicle: saline with Tween-80 102 % of control | endpoint: mean survival time, dose: 0.25 mg/kg/injection, schedule: Q01DX009 (ip), vehicle: saline with Tween-80 102 % of control | endpoint: mean survival time, dose: 0.5 mg/kg/injection, schedule: Q01DX009 (ip), vehicle: saline with Tween-80 98 % of control | endpoint: mean survival time, dose: 1.0 mg/kg/injection, schedule: Q01DX009 (ip), vehicle: saline with Tween-80 101 % of control | endpoint: mean survival time, dose: 2.0 mg/kg/injection, schedule: Q01DX009 (ip), vehicle: saline with Tween-80 112 % of control | endpoint: mean survival time, dose: 4.0 mg/kg/injection, schedule: Q01DX009 (ip), vehicle: saline with Tween-80 111 % of control | endpoint: mean survival time, dose: 5.0 mg/kg/injection, schedule: Q01DX001 (ip), vehicle: saline 104 % of control | endpoint: mean survival time, dose: 10.0 mg/kg/injection, schedule: Q01DX001 (ip), vehicle: saline 107 % of control

Cc1ccc(O)c(C)n1
inactive: endpoint: mean survival time, dose: 100.0 mg/kg/injection, schedule: Q04DX003 (ip), vehicle: saline 104 % of control | endpoint: mean survival time, dose: 200.0 mg/kg/injection, schedule: Q04DX003 (ip), vehicle: saline 98 % of control | endpoint: mean survival time, dose: 400.0 mg/kg/injection, schedule: Q04DX003 (ip), vehicle: saline 97 % of control

CN(C)C(=O)Nc1ccc(Br)cc1
inactive: [4] 86 % of control | [5] 93 % of control | [6] 93 % of control

O=c1ccn2cnc3c(ncn3C3OC(CO)C(O)C3O)c2n1 (stereo not given)
inactive: endpoint: median survival time, dose: 12.5 mg/kg/injection, schedule: Q01DX005 (ip), vehicle: saline with Tween-80 105 % of control | endpoint: median survival time, dose: 25.0 mg/kg/injection, schedule: Q01DX005 (ip), vehicle: saline with Tween-80 98 % of control | endpoint: median survival time, dose: 50.0 mg/kg/injection, schedule: Q01DX005 (ip), vehicle: saline with Tween-80 98 % of control | endpoint: median survival time, dose: 100.0 mg/kg/injection, schedule: Q01DX005 (ip), vehicle: saline with Tween-80 103 % of control | endpoint: median survival time, dose: 200.0 mg/kg/injection, schedule: Q01DX005 (ip), vehicle: saline with Tween-80 103 % of control

CCCCOC(=O)CC(=O)OCCCC
inactive: [1] 102 % of control | [10] 101 % of control | [2] 104 % of control | [11] 93 % of control | [3] 96 % of control | [12] 93 % of control

CC(C)c1cc(C(C)C)c(S(=O)(=O)OCC2OC(OC3(COS(=O)(=O)c4c(C(C)C)cc(C(C)C)cc4C(C)C)OC(COS(=O)(=O)c4c(C(C)C)cc(C(C)C)cc4C(C)C)C(O)C3O)C(O)C(O)C2O)c(C(C)C)c1 (stereo not given)
inactive: [13] 98 % of control | [1] 95 % of control | [2] 102 % of control

C=Cc1ccncc1
inactive: endpoint: mean survival time, dose: 12.5 mg/kg/injection, schedule: Q01DX009 (ip), vehicle: saline with Tween-80 91 % of control | endpoint: mean survival time, dose: 25.0 mg/kg/injection, schedule: Q01DX009 (ip), vehicle: saline with Tween-80 95 % of control | [13] 98 % of control

CN(N=O)C(=O)Nc1ccc(C2CC(=O)N(C)C2=O)cc1 (stereo not given)
inactive: endpoint: mean survival time, dose: 12.5 mg/kg/injection, schedule: Q01DX001 (ip), vehicle: distilled water + Tween-80 113 % of control | endpoint: mean survival time, dose: 25.0 mg/kg/injection, schedule: Q01DX001 (ip), vehicle: distilled water + Tween-80 101 % of control and 106 % of control | endpoint: mean survival time, dose: 50.0 mg/kg/injection, schedule: Q01DX001 (ip), vehicle: distilled water + Tween-80 108 % of control and 112 % of control | endpoint: mean survival time, dose: 100.0 mg/kg/injection, schedule: Q01DX001 (ip), vehicle: distilled water + Tween-80 113 % of control | endpoint: mean survival time, dose: 200.0 mg/kg/injection, schedule: Q01DX001 (ip), vehicle: distilled water + Tween-80 112 % of control

OC(C/C=C/c1ccccc1)(c1ccccc1)c1ccccc1
inactive: [1] 93 % of control | [2] 101 % of control | [3] 96 % of control

O=C1C=CC(=O)c2c(O)ccc(O)c21
inactive: endpoint: mean survival time, dose: 1.0 mg/kg/injection, schedule: Q04DX003 (ip), vehicle: saline with Tween-80 91 % of control | endpoint: mean survival time, dose: 2.0 mg/kg/injection, schedule: Q04DX003 (ip), vehicle: saline with Tween-80 104 % of control | endpoint: mean survival time, dose: 4.0 mg/kg/injection, schedule: Q04DX003 (ip), vehicle: saline with Tween-80 104 % of control

COc1c2occc2c(OC)c2c(=O)cc(/C=C/c3ccccn3)oc12
inactive: [7] 98 % of control | [8] 101 % of control | [9] 98 % of control

CC(=O)OCC(COC(C)=O)(COC(C)=O)COC(C)=O
inactive: [1] 97 % of control | [10] 100 % of control | [2] 97 % of control | [11] 96 % of control | [3] 98 % of control | [12] 93 % of control
